# Several values for one entry are separate records, joined by “and”; a condition that tells them apart may be missing. Identical values can stand only once.
# What was measured:
# Assay type in all cases: cell-based
# GPR139 (Gi3 activation) = target: T1, GPR139 (Gi3 activation) (Homo sapiens, UniProt Q6DWJ6); test: BRET G protein activation (dissociation) assay, Gi3, HEK293A; conditions: for G protein activation, Gi3: individual replicates
# T1 construct: expressed in transfected cells; host or cells: HEK293A (transient, Lipofectamine 2000)
# T1 sequence (Q6DWJ6 1-353): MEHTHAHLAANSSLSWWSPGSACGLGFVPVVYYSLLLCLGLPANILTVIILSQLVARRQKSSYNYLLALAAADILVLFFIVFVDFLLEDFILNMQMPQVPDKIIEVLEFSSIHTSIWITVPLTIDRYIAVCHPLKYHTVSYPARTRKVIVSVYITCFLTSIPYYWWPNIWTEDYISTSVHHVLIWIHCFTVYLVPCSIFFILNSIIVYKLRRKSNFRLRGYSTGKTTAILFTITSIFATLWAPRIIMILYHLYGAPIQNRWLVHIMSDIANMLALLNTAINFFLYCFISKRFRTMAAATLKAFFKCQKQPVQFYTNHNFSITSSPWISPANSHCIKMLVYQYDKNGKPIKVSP
# Outline: (§1)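 HEK293A cells were reverse-transfected 20–24 h before assay with GPR139, Venus-Gβ1γ2, masGRK3ct-NanoLuc and Gαq, Gαi2, Gαi3 or Gα12; the Gαq and Gα12 sets also got PTX-S1. Compounds and furimazine went on in HEPES buffer at room temperature. The 535/475 nm BRET ratio was read at 20 s (Gq), 15 s (Gi2), 10 s (Gi3) or 90 s (G12), buffer-subtracted, normalized to 10 µM JNJ-63533054, and fitted by variable-slope regression.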
# GPR139 (Gi2 activation) = target: T2, GPR139 (Gi2 activation) (Homo sapiens, UniProt Q6DWJ6); test: BRET G protein activation (dissociation) assay, Gi2, HEK293A; conditions: for G protein activation, Gi2: individual replicates
# T2 construct: expressed in transfected cells; host or cells: HEK293A (transient, Lipofectamine 2000)
# T2 sequence (Q6DWJ6 1-353): T1 sequence (Q6DWJ6 1-353)
# Outline: as §1
# GPR139 (G12 activation) = target: T3, GPR139 (G12 activation) (Homo sapiens, UniProt Q6DWJ6); test: BRET G protein activation (dissociation) assay, G12, HEK293A; conditions: for G protein activation, G12: individual replicates
# T3 construct: expressed in transfected cells; host or cells: HEK293A (transient, Lipofectamine 2000)
# T3 sequence (Q6DWJ6 1-353): T1 sequence (Q6DWJ6 1-353)
# Outline: as §1
# GPR139 (GoA activation) = target: T4, GPR139 (GoA activation) (Homo sapiens, UniProt Q6DWJ6); test: BRET G protein activation (dissociation) assay, GoA, HEK293A; conditions: for G protein activation, GoA: individual replicates
# T4 construct: expressed in transfected cells; host or cells: HEK293A (transient, Lipofectamine 2000)
# T4 sequence (Q6DWJ6 1-353): T1 sequence (Q6DWJ6 1-353)
# Outline: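 HEK293A cells were reverse transfected 20–24 h beforehand with GPR139, Venus 1-155 Gγ2, Venus 159-239 Gβ1, masGRK3ct-NanoLuc and 12.6 ng GαoA using Lipofectamine 2000. Cells were plated at 50,000 per well in poly-D-lysine-coated white 96-well plates. After washing in HEPES buffer, compounds and 1000-fold diluted furimazine were added. The 535 nm/475 nm BRET ratio was read at 15 s and corrected for buffer basal.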
# [1] = HEK293-A, normalized to JNJ-63533054 (JNJ(S))
smiles,measurement,setting,value
Cc1cscc1-c1nc(CC(=O)N[C@@H](C)c2ccccc2)no1 [1.1(S)],Emax,GPR139 (Gi3 activation); [1],45 ± 3%
same,EC50,"GPR139 (Gi3 activation); Supplementary Table 6, read-out: pEC50 Gi3 (converted)",50.1 nM
same,"G protein activation, Gi3",GPR139 (Gi3 activation); log [compound] M -4.5,50 % of JNJ-63533054 at Gi2 and 43 % of JNJ-63533054 at Gi2 and 51 % of JNJ-63533054 at Gi2
same,"G protein activation, Gi3",GPR139 (Gi3 activation); log [compound] M -5.0,46 % of JNJ-63533054 at Gi2 and 36 % of JNJ-63533054 at Gi2 and 43 % of JNJ-63533054 at Gi2
same,"G protein activation, Gi3",GPR139 (Gi3 activation); log [compound] M -5.5,46 % of JNJ-63533054 at Gi2 and 40 % of JNJ-63533054 at Gi2 and 43 % of JNJ-63533054 at Gi2
same,"G protein activation, Gi3",GPR139 (Gi3 activation); log [compound] M -6.0,44 % of JNJ-63533054 at Gi2 and 36 % of JNJ-63533054 at Gi2 and 42 % of JNJ-63533054 at Gi2
same,"G protein activation, Gi3",GPR139 (Gi3 activation); log [compound] M -6.5,37 % of JNJ-63533054 at Gi2 (2×) and 36 % of JNJ-63533054 at Gi2
same,"G protein activation, Gi3",GPR139 (Gi3 activation); log [compound] M -7.0,31 % of JNJ-63533054 at Gi2 and 26 % of JNJ-63533054 at Gi2 and 28 % of JNJ-63533054 at Gi2
same,"G protein activation, Gi3",GPR139 (Gi3 activation); log [compound] M -7.5,18 % of JNJ-63533054 at Gi2 and 14 % of JNJ-63533054 at Gi2 and 21 % of JNJ-63533054 at Gi2
same,"G protein activation, Gi3",GPR139 (Gi3 activation); log [compound] M -8.0,11 % of JNJ-63533054 at Gi2 and 5.42 % of JNJ-63533054 at Gi2 and 10 % of JNJ-63533054 at Gi2
same,Emax,GPR139 (Gi2 activation); [1],95 ± 5%
same,EC50,"GPR139 (Gi2 activation); Supplementary Table 6, read-out: pEC50 Gi2 (converted)",50.1 nM
same,"G protein activation, Gi2",GPR139 (Gi2 activation); log [compound] M -4.5,94 % of JNJ-63533054 at Gi2 (2×) and 104 % of JNJ-63533054 at Gi2
same,"G protein activation, Gi2",GPR139 (Gi2 activation); log [compound] M -5.0,90 % of JNJ-63533054 at Gi2 (2×) and 104 % of JNJ-63533054 at Gi2
same,"G protein activation, Gi2",GPR139 (Gi2 activation); log [compound] M -5.5,86 % of JNJ-63533054 at Gi2 and 80 % of JNJ-63533054 at Gi2 and 99 % of JNJ-63533054 at Gi2
same,"G protein activation, Gi2",GPR139 (Gi2 activation); log [compound] M -6.0,86 % of JNJ-63533054 at Gi2 and 80 % of JNJ-63533054 at Gi2 and 99 % of JNJ-63533054 at Gi2
same,"G protein activation, Gi2",GPR139 (Gi2 activation); log [compound] M -6.5,82 % of JNJ-63533054 at Gi2 and 74 % of JNJ-63533054 at Gi2 and 89 % of JNJ-63533054 at Gi2
same,"G protein activation, Gi2",GPR139 (Gi2 activation); log [compound] M -7.0,63 % of JNJ-63533054 at Gi2 and 57 % of JNJ-63533054 at Gi2 and 72 % of JNJ-63533054 at Gi2
same,"G protein activation, Gi2",GPR139 (Gi2 activation); log [compound] M -7.5,36 % of JNJ-63533054 at Gi2 and 35 % of JNJ-63533054 at Gi2 and 49 % of JNJ-63533054 at Gi2
same,"G protein activation, Gi2",GPR139 (Gi2 activation); log [compound] M -8.0,14 % of JNJ-63533054 at Gi2 and 11 % of JNJ-63533054 at Gi2 and 32 % of JNJ-63533054 at Gi2
same,Emax,GPR139 (G12 activation); [1],54 ± 3%
same,EC50,"GPR139 (G12 activation); Supplementary Table 6, read-out: pEC50 G12 (converted)",12.6 nM
same,"G protein activation, G12",GPR139 (G12 activation); log [compound] M -4.5,60 % of JNJ-63533054 at Gi2 (2×) and 52 % of JNJ-63533054 at Gi2
same,"G protein activation, G12",GPR139 (G12 activation); log [compound] M -5.0,54 % of JNJ-63533054 at Gi2 and 46 % of JNJ-63533054 at Gi2 and 58 % of JNJ-63533054 at Gi2
same,"G protein activation, G12",GPR139 (G12 activation); log [compound] M -5.5,51 % of JNJ-63533054 at Gi2 and 44 % of JNJ-63533054 at Gi2 and 56 % of JNJ-63533054 at Gi2
same,"G protein activation, G12",GPR139 (G12 activation); log [compound] M -6.0,52 % of JNJ-63533054 at Gi2 and 45 % of JNJ-63533054 at Gi2 and 55 % of JNJ-63533054 at Gi2
same,"G protein activation, G12",GPR139 (G12 activation); log [compound] M -6.5,47 % of JNJ-63533054 at Gi2 and 43 % of JNJ-63533054 at Gi2 and 53 % of JNJ-63533054 at Gi2
same,"G protein activation, G12",GPR139 (G12 activation); log [compound] M -7.0,46 % of JNJ-63533054 at Gi2 and 39 % of JNJ-63533054 at Gi2 and 52 % of JNJ-63533054 at Gi2
same,"G protein activation, G12",GPR139 (G12 activation); log [compound] M -7.5,36 % of JNJ-63533054 at Gi2 and 32 % of JNJ-63533054 at Gi2 and 42 % of JNJ-63533054 at Gi2
same,"G protein activation, G12",GPR139 (G12 activation); log [compound] M -8.0,22 % of JNJ-63533054 at Gi2 and 19 % of JNJ-63533054 at Gi2 and 27 % of JNJ-63533054 at Gi2
same,Emax,GPR139 (GoA activation); [1],96 ± 3%
same,EC50,GPR139 (GoA activation); Supplementary Table 6,63.1 nM
same,"G protein activation, GoA",GPR139 (GoA activation); log [compound] M -4.5,105 % of JNJ-63533054 at Gi2 and 96 % of JNJ-63533054 at Gi2 and 101 % of JNJ-63533054 at Gi2
same,"G protein activation, GoA",GPR139 (GoA activation); log [compound] M -5.0,96 % of JNJ-63533054 at Gi2 and 86 % of JNJ-63533054 at Gi2 and 97 % of JNJ-63533054 at Gi2
same,"G protein activation, GoA",GPR139 (GoA activation); log [compound] M -5.5,94 % of JNJ-63533054 at Gi2 and 83 % of JNJ-63533054 at Gi2 and 96 % of JNJ-63533054 at Gi2
same,"G protein activation, GoA",GPR139 (GoA activation); log [compound] M -6.0,93 % of JNJ-63533054 at Gi2 and 78 % of JNJ-63533054 at Gi2 and 92 % of JNJ-63533054 at Gi2
same,"G protein activation, GoA",GPR139 (GoA activation); log [compound] M -6.5,83 % of JNJ-63533054 at Gi2 and 70 % of JNJ-63533054 at Gi2 and 76 % of JNJ-63533054 at Gi2
same,"G protein activation, GoA",GPR139 (GoA activation); log [compound] M -7.0,62 % of JNJ-63533054 at Gi2 and 52 % of JNJ-63533054 at Gi2 and 61 % of JNJ-63533054 at Gi2
same,"G protein activation, GoA",GPR139 (GoA activation); log [compound] M -7.5,34 % of JNJ-63533054 at Gi2 and 29 % of JNJ-63533054 at Gi2 and 31 % of JNJ-63533054 at Gi2
same,"G protein activation, GoA",GPR139 (GoA activation); log [compound] M -8.0,11 % of JNJ-63533054 at Gi2 and 8 % of JNJ-63533054 at Gi2 and 13 % of JNJ-63533054 at Gi2

# Reference: article PMC12775434, “Ultra-large virtual screening unveils potent agonists of the neuromodulatory orphan receptor GPR139” (Nature Communications, 2025)
